The record followed here is the supplement of paper PMC11061612.

Assay [1] concerns BC-1 (B-Cell Non-Hodgkin's Lymphoma). The assay can be described thus: Bliss excess, mean over the matrix (fraction); higher = more synergy. In short, it runs like this:
(§1)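 Cell lines in DMEM/F12 or RPMI with 10% FBS were plated in 1536-well plates, held 24 hours at 37°C, 5% CO2, then given two-drug dose matrices for 72 hours (DMSO typically 0.2%). Viability was read by CellTiter-Glo 2.0 luminescence and scaled as inhibition from 0 (vehicle wells) to 1 (blank wells). Combination Emax is the second-highest inhibition in the matrix; Bliss excess is observed combination effect minus expected EA + EB − EA·EB, EA and EB being single-agent effects.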

Assay [2] relates to C2BBe1 (Colorectal Carcinoma). The assay is described as above. In short, it runs like this:
as §1

The test system of assay [3] is HT-1197 (Bladder Carcinoma). The assay is described as above. The method in brief:
as §1

Assay [4] concerns HT-3 (Cervical Carcinoma). The assay is described as above. The method in brief:
as §1

Assay [5] has as its system JJN-3 (Plasma Cell Myeloma). The assay is described as above. The method in brief:
as §1

In assay [6] the test system is NCI-H1648 (Lung Adenocarcinoma). The description is as above. The method in brief: as §1
The subject of assay [7] is SCC90 (Head and Neck Carcinoma). Described as above. The method in brief: as §1
In another assay the test system is SK-MEL-24 (Melanoma). Described as above. The method in brief: as §1
Assay [8] deals with SUP-HD1 (Hodgkin's Lymphoma). The assay is described as above. The method in brief:
as §1

The test system of assay [9] is SW1463 (Colorectal Carcinoma). Described as above. The method in brief: as §1
The subject of assay [10] is TOV-21G (Ovarian Carcinoma). The description is as above. In short, it runs like this: as §1
In assay [11] the test system is CAL-85-1 (Breast Carcinoma). The assay can be described thus: combination Emax (second highest fraction inhibited in the dose matrix, 72 h); higher = more inhibition; extreme values may be limits of the assay. In short, it runs like this: as §1
Assay [12] concerns KNS-62 (Squamous Cell Lung Carcinoma). Described as above. The method in brief:
as §1

Assay [13] concerns L-363 (Plasma Cell Myeloma). Described as above. In short, it runs like this: as §1
In assay [14] the test system is MRK-nu-1 (Breast Carcinoma). The assay is described as above. The method in brief: as §1
Assay [15] concerns NCI-H1648 (Lung Adenocarcinoma). The assay is described as above. In short, it runs like this: as §1
For assay [16], the system named is NCI-H1944 (Lung Adenocarcinoma). Described as above. In short, it runs like this:
as §1

For assay [17], the system named is NCI-H2023 (Non-Small Cell Lung Carcinoma). The description is as above. In short, it runs like this:
as §1

Assay [18] concerns TOV-21G (Ovarian Carcinoma). The description is as above. The method in brief:
as §1

The test system of assay [19] is NCI-H2009 (Lung Adenocarcinoma). The assay can be described thus: Bliss excess, mean over the matrix (fraction); higher = more synergy. The method in brief: as §1
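Throughout, for Bliss excess, mean over the matrix: after 72 h of two-drug dosing.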

Turning to `CN(CCO)CC[C@H](CSc1ccccc1)Nc1ccc(S(=O)(=O)NC(=O)c2ccc(N3CCC([C@@H](O)c4ccccc4-c4ccc(Cl)cc4)CC3)cc2)cc1S(=O)(=O)C(F)(F)F` [AZD4320] + C=CCn1c(=O)c2cnc(Nc3ccc(N4CCN(C)CC4)cc3)nc2n1-c1cccc(C(C)(C)O)n1 [AZD1775] (first compound max 1 µM, partner max 1 µM), the Bliss excess is 0.0386 in [1]; -0.0286 in [2]; 0.0626 in assay [3]; -0.0296 in assay [4]; -0.0535 in assay [5]; -0.0353 in [6]. The Bliss excess was 0.0385 in [7]; 0.001 with SK-MEL-24 (Melanoma); -0.0383 in [8]; -0.044 in assay [9]; -0.0299 in [10]. Moreover, the “combination Emax” value turned out to be 0.439 in assay [11]; 0.363 in assay [12]; 1 in [13]; 0.174 in assay [14]; 0.707 in assay [15]; 0.813 in assay [16]. Further, the “combination Emax” value turned out to be 0.623 in [17] and 0.721 in assay [18].

As to `CN(CCO)CC[C@H](CSc1ccccc1)Nc1ccc(S(=O)(=O)NC(=O)c2ccc(N3CCC([C@@H](O)c4ccccc4-c4ccc(Cl)cc4)CC3)cc2)cc1S(=O)(=O)C(F)(F)F` [AZD4320] + Cn1cnc2c(F)c(Nc3ccc(Br)cc3Cl)c(C(=O)NOCCO)cc21 [Selumetinib] (first compound max 1 µM, 7x7, partner max 3 µM), the Bliss excess in assay [1] was 0.0573; in assay [2], 0.0082; in [3] it was 0.0079; in [4], 0.0308; in assay [6], 0.0177; in [19] it was -0.006. Further, the Bliss excess was 0.144 in assay [7]; -0.0168 in the assay with SK-MEL-24 (Melanoma); 0.0036 in [8]; 0.0106 in assay [9]; 0.0593 in assay [10]. For the same compound, the “combination Emax” value in assay [11] is 0.683; in assay [12], 0.399; in [13], 0.212; in [14] it was 0.562; in assay [15], 0.83; in [16], 0.702. In addition, the “combination Emax” value came out at 0.268 in [17] and 0.503 in [18].

Take `COc1nnc2ccc(N3CCC(c4ccc(OCCN5CCN(C)C(=O)[C@H]5C)cc4)CC3)nn12` [AZD5153] + CN(CC[C@H](CSC1=CC=CC=C1)NC2=C(C=C(C=C2)S(=O)(=O)NC(=O)C3=CC=C(C=C3)N4CCC(CC4)[C@H](C5=CC=CC=C5C6=CC=C(C=C6)Cl)O)S(=O)(=O)C(F)(F)F)CCO [AZD4320] (first compound max 1 µM, 7x7, partner max 1 µM): the Bliss excess in [2] is -0.0521; in assay [3] it was 0.073; in assay [4] it was 0.0347; in [5], -0.0443; in assay [7] it was 0.021; in assay [8], -0.0094. Also, the Bliss excess in assay [10] stood at 0.0211. In addition, the figures for the “combination Emax” value in assay [16] and in [18] were 0.616 and 0.807, respectively.

With `Cc1c2c(nn1C)CSCc1cc(n(C)n1)CSc1cc(c3ccccc3c1)OCCCc1c(C(=O)O)n(C)c3c-2c(Cl)ccc13` [AZD5991] + CC1(C)CCC(CN2CCN(c3ccc(C(=O)NS(=O)(=O)c4ccc(NCC5CCOCC5)c([N+](=O)[O-])c4)c(Oc4cnc5[nH]ccc5c4)c3)CC2)=C(c2ccc(Cl)cc2)C1 [Venetoclax] (first compound max 1 µM, 7x7, partner max 1 µM), the Bliss excess in [1] is 0.0493; in assay [2], 0.0031; in assay [3] it was -0.0257; in [4], 0.0195; in [5], 0.0514; in assay [6], -0.0482. Besides, the Bliss excess is -0.0158 in assay [19]; 0.0246 in assay [7]; -0.0426 in the assay on SK-MEL-24 (Melanoma); 0.0788 in [8]; -0.0589 in [9]; -0.0115 in assay [10]. Further, the “combination Emax” value in [11] was determined as 0.122; in assay [13] it was 1; in assay [14] it was 1; in assay [15], 0.748; in assay [16] it was 0.214; in [17], 0.205. In addition, the “combination Emax” value in assay [18] was determined as 0.209.

Take `Cc1c2c(nn1C)CSCc1cc(n(C)n1)CSc1cc(c3ccccc3c1)OCCCc1c(C(=O)O)n(C)c3c-2c(Cl)ccc13` [AZD5991] + Cc1cc2ncnn2cc1Nc1ncc2c(n1)n(C1CCOCC1)c(=O)n2C [AZD7648] (first compound max 1 µM, 7x7, partner max 10 µM): the Bliss excess in assay [1] was 0.0172; in assay [2] it was -0.0449; in assay [3] it was -0.059; in [4] it was -0.0173; in [5], 0.0324; in [6], -0.0218. Besides, the Bliss excess in assay [19] was -0.0188; in assay [7], -0.029; in the assay with SK-MEL-24 (Melanoma), -0.0134; in assay [8], -0.104; in [9] it was -0.015; in assay [10], -0.0461. For the same compound, the “combination Emax” value is 0.402 in assay [11]; 0.277 in assay [12]; 1 in [13]; 1 in assay [14]; 0.892 in assay [15]; 0.384 in assay [16]. In addition, the “combination Emax” value in assay [17] is 0.441.

Turning to `C[C@@H]1COCCN1c1cc(C2([S@](C)(=N)=O)CC2)nc(-c2ccnc3[nH]ccc23)n1` [AZD6738] + O=C(c1cc(Cc2n[nH]c(=O)c3ccccc23)ccc1F)N1CCN(C(=O)C2CC2)CC1 [Olaparib] (first compound max 10 µM, 7x7, partner max 10 µM), the Bliss excess is -0.0041 in assay [1]; 0.0009 in [2]; -0.0042 in assay [3]; 0.0399 in assay [4]; -0.0548 in [5]; 0.0086 in assay [6]. Further, the Bliss excess in assay [19] is 0.0046; in assay [7] it was 0.021; in the assay with SK-MEL-24 (Melanoma), -0.0105; in assay [8] it was -0.054; in [10], 0.0035. In addition, the “combination Emax” value is 0.413 in assay [12]; 0.854 in assay [13]; 0.621 in assay [14]; 0.689 in assay [15]; 0.745 in assay [16]; 0.846 in assay [17]. Further, the “combination Emax” value in assay [18] stood at 0.538.

Turning to `CC(=O)c1c(C)c2cnc(Nc3ccc(N4CCNCC4)cn3)nc2n(C2CCCC2)c1=O` [Palbociclib] + CN(CC[C@H](CSC1=CC=CC=C1)NC2=C(C=C(C=C2)S(=O)(=O)NC(=O)C3=CC=C(C=C3)N4CCC(CC4)[C@H](C5=CC=CC=C5C6=CC=C(C=C6)Cl)O)S(=O)(=O)C(F)(F)F)CCO [AZD4320] (first compound max 10 µM, 7x7, partner max 1 µM), the Bliss excess was -0.0652 in [2]; -0.0184 in assay [3]; -0.0431 in assay [4]; -0.014 in assay [5]; -0.0407 in assay [7]; -0.0407 in [8]. In addition, in [10], the Bliss excess was -0.0853. Further, the entries for the “combination Emax” value in [16] and in assay [18] were 0.628 and 0.626, respectively.

Consider `CCc1c2c(nc3ccc(O)cc13)-c1cc3c(c(=O)n1C2)COC(=O)[C@]3(O)CC` [SN-38] + O=C(c1cc(Cc2n[nH]c(=O)c3ccccc23)ccc1F)N1CCN(C(=O)C2CC2)CC1 [Olaparib] (first compound max 0.3 µM, 7x7, partner max 10 µM), for which the Bliss excess in assay [1] came to 0.0369; in assay [3], 0.0465; in [4], 0.0669; in assay [5], 0.0187; in [6] it was 0.0133; in [19], 0.14. The Bliss excess in [7] is 0.0728; with SK-MEL-24 (Melanoma) it was 0.0007; in assay [8] it was -0.0168; in [9], 0.0557. Further, the “combination Emax” value came to 0.702 in assay [11]; 0.905 in assay [12]; 0.421 in [13]; 0.868 in assay [14]; 0.915 in assay [15]; 0.634 in assay [16]. Besides, the “combination Emax” value in assay [17] was 0.857.
